Data: patent US9409884B2 (Rigel Pharmaceuticals, Inc., priority 2012, dated 2016)

Molecular target: AMPK
Experiment: AMPK activation, enzyme-linked immunosorbent assay
Assay type: biochemical
Details: Table 14, compounds of Table 7
How it was run: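 Read-out: ELISA, used to detect compound-driven activation of AMPK.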

| SMILES | EC50 |
| --- | --- |
| N#Cc1ccc(CN2CCC(NC(=O)c3ccc(C(=O)N4CCC(Oc5ccc(C#N)cc5)CC4)nc3)[C@@H](F)C2)cc1 (stereo partly drawn) [Compound 7-67, N-((3,4-trans)-l-(4-cyanobenzyl)-3-fluoropiperidin-4-yl)-6-(4-(4-cyanophenoxy)piperidine-1-carbonyl)nicotinamide] | < 1000 nM |
| CC(=O)c1ccc(Oc2ccc(NC(=O)c3ccc(C(=O)N4CCC(C(=O)c5ccc(OC(F)(F)F)cc5)CC4)nc3)cn2)cc1 [Compound 7-70, N-(6-(4-acetylphenoxy)pyridin-3-yl)-6-(4-(4-(trifluoromethoxy)benzoyl)piperidine-1-carbonyl) nicotinamide] | < 1000 nM |
| CC(=O)c1ccc(OC2CCN(C(=O)c3ccc(C(=O)NC4CCN(Cc5ccc(C#N)cc5)C[C@H]4F)cn3)CC2)cc1 (stereo partly drawn) [Compound 7-74, 6-(4-(4-acetylphenoxy)piperidine-1-carbonyl)-N-((3,4-trans)-1-(4-cyanobenzyl)-3-fluoropiperidin-4-yl)nicotinamide] | < 1000 nM |
| N#Cc1ccc(CN2CCC(NC(=O)c3ccc(C(=O)N4CCC(C(=O)c5ccc(N6CCOCC6)cc5)CC4)nc3)[C@H](F)C2)cc1 (stereo partly drawn) [Compound 7-75, N-((3,4-trans)-1-(4-cyanobenzyl)-3-fluoropiperidin-4-yl)-6-(4-(4-morpholinobenzoyl)piperidine-l-carbonyl)nicotinamide] | < 1000 nM |
| CC(=O)c1ccc(Oc2ccc(NC(=O)c3ccc(C(=O)N4CCN(Cc5ccc(S(C)(=O)=O)cc5)CC4)nc3)cn2)cc1 [Compound 7-76, N-(6-(4-acetylphenoxy)pyridin-3-yl)-6-(4-(4-(methylsulfonyl)benzyl)piperazine-1-carbonyl) nicotinamide] | 1000 to 10000 nM |
| CS(=O)(=O)c1ccc(CN2CCN(c3ccc(C(=O)NC4CCN(Cc5ccc(C#N)cc5)CC4)cn3)CC2)cc1 [Compound 7-79, N-(1-(4-cyanobenzyl)piperidin-4-yl)-6-(4-(4-(methylsulfonyl)benzyl)piperazin-1-yl)nicotinamide] | 10000 to 20000 nM |
| CS(=O)(=O)c1ccc(OC2CCN(c3ccc(C(=O)NC4CCN(Cc5ccc(C#N)cc5)CC4)cn3)CC2)cc1 [Compound 7-80, N-(1-(4-cyanobenzyl)piperidin-4-yl)-6-(4-(4-(methylsulfonyl)phenoxy)piperidin-1-yl)nicotinamide] | < 1000 nM |
| N#Cc1ccc(CN2CCC(NC(=O)c3ccc(N4CCN(c5ccc(C(=O)C6CC6)cc5)CC4)nc3)CC2)cc1 [Compound 7-81, N-(1-(4-cyanobenzyl)piperidin-4-yl)-6-(4-(4-(cyclopropanecarbonyl)phenyl)piperazin-1-yl)nicotinamide] | < 1000 nM |
| COc1ccc(C(=O)C2CCN(C(=O)c3ccc(C(=O)NC4CCN(Cc5ccc(F)c(OC)c5)CC4(C)C)cn3)CC2)cc1 (centres unmarked) [Compound 7-87, N-(1-(4-fluoro-3-methoxybenzyl)-3,3-dimethylpiperidin-4-yl)-6-(4-(4-methoxybenzoyl)piperidine-1-carbonyl)nicotinamide] | 1000 to 10000 nM |
| COc1ccc(C(=O)C2CCN(C(=O)c3ccc(C(=O)NC4CCN(Cc5ccc(C#N)c(OC)c5)CC4(C)C)cn3)CC2)cc1 (centres unmarked) [Compound 7-89, N-(1-(4-cyano-3-methoxybenzyl)-3,3-dimethylpiperidin-4-yl)-6-(4-(4-methoxybenzoyl)piperidine-1-carbonyl)nicotinamide] | 1000 to 10000 nM |
| COc1ccc(C(=O)C2CCN(C(=O)c3ccc(C(=O)NC4CCN(Cc5ccc(OC)c(C#N)c5)CC4(C)C)cn3)CC2)cc1 (centres unmarked) [Compound 7-90, N-(1-(3-cyano-4-methoxybenzyl)-3,3-dimethylpiperidin-4-yl)-6-(4-(4-methoxybenzoyl)piperidine-1-carbonyl)nicotinamide] | 1000 to 10000 nM |
| CCNS(=O)(=O)c1ccc(CN2CCN(C(=O)c3ccc(C(=O)N4CCC(C(=O)c5ccc(OC)cc5)CC4)nc3)CC2)cc1 [Compound 7-91, N-ethyl-4-((4-(6-(4-(4-methoxybenzoyl)piperidine-1-carbonyl)nicotinoyl)piperazin-1-yl)methyl)benzenesulfonamide] | 10000 to 20000 nM |
| CCNS(=O)(=O)c1ccc(CN2CCN(C(=O)c3ccc(C(=O)Nc4ccc(Oc5ccc(C(C)=O)cc5)nc4)cn3)CC2)cc1 [Compound 7-92, N-(6-(4-acetylphenoxy)pyridin-3-yl)-6-(4-(4-(N-ethylsulfamoyl)benzyl)piperazine-1-carbonyl) nicotinamide] | 1000 to 10000 nM |
| COc1ccc(C(=O)C2CCN(C(=O)c3ccc(C(=O)NC4CCN(Cc5ccc(OC(F)(F)F)cc5)C[C@@H]4C)cn3)CC2)cc1 (stereo partly drawn) [Compound 7-94, 6-(4-(4-methoxybenzoyl)piperidine-1-carbonyl)-N-((3,4-cis)-3-methyl-1-(4-(trifluoromethoxy)benzyl)piperidin-4-yl)nicotinamide] | < 1000 nM |
| COc1ccc(C(=O)C2CCN(C(=O)c3ccc(C(=O)NC4CCN(Cc5ccc(OC)c(F)c5)CC4(C)C)cn3)CC2)cc1 (centres unmarked) [Compound 7-95, N-(1-(3-fluoro-4-methoxybenzyl)-3,3-dimethylpiperidin-4-yl)-6-(4-(4-methoxybenzoyl)piperidine-1-carbonyl)nicotinamide] | < 1000 nM |

Next, values leading:

| EC50 | SMILES |
| --- | --- |
| 10000 to 20000 nM | COc1ccc(C(=O)C2CCN(C(=O)c3ccc(C(=O)NC4CCN(Cc5cnn(C)c5)C[C@H]4F)cn3)CC2)cc1 (stereo partly drawn) [Compound 7-63, N-((3,4-trans)-3-fluoro-1-((1-methyl-1H-pyrazol-4-yl)methyl)piperidin-4-yl)-6-(4-(4-methoxybenzoyl)piperidine-1-carbonyl)nicotinamide] |
| 1000 to 10000 nM | Cc1cc(OC2CCN(C(=O)c3ccc(C(=O)NC4CCN(Cc5ccc(OC(F)(F)C(F)F)cc5)CC4)cn3)CC2)ccc1S(C)(=O)=O [Compound 7-64, 6-(4-(3-methyl-4-(methylsulfonyl)phenoxy)piperidine-1-carbonyl)-N-(1-(4-(1,1,2,2-tetrafluoroethoxy)benzyl)piperidin-4-yl)nicotinamide] |
| < 1000 nM | N#Cc1ccc(CN2CCC(NC(=O)c3ccc(C(=O)N4CCC(C(=O)c5ccc(-n6cccn6)cc5)CC4)nc3)[C@H](F)C2)cc1 (stereo partly drawn) [Compound 7-68, 6-(4-(4-(lH-pyrazol-1-yl)benzoyl)piperidine-1-carbonyl)-N-((3,4-trans)-1-(4-cyanobenzyl)-3-fluoropiperidin-4-yl)nicotinamide] |
| < 1000 nM | N#Cc1ccc(CN2CCC(NC(=O)c3ccc(C(=O)N4CCC(C(=O)c5ccc(OC(F)(F)F)cc5)CC4)nc3)[C@H](F)C2)cc1 (stereo partly drawn) [Compound 7-71, N-((3,4-trans)-1-(4-cyanobenzyl)-3-fluoropiperidin-4-yl)-6-(4-(4-(trifluoromethoxy)benzoyl)piperidine-1-carbonyl) nicotinamide] |
| < 1000 nM | N#Cc1ccc(CN2CCC(NC(=O)c3ccc(C(=O)N4CCC(C(=O)c5ccc(N6CCCC6)cc5)CC4)nc3)[C@H](F)C2)cc1 (stereo partly drawn) [Compound 7-72, N-((3,4-trans)-1-(4-cyanobenzyl)-3-fluoropiperidin-4-yl)-6-(4-(4-(pyrrolidin-1-yl)benzoyl)piperidine-1-carbonyl)nicotinamide] |
| 1000 to 10000 nM | N#Cc1ccc(CN2CCC(NC(=O)c3ccc(C(=O)N4CCC(Oc5ccc(S(=O)(=O)C6CC6)cc5)CC4)nc3)[C@H](F)C2)cc1 (stereo partly drawn) [Compound 7-73, N-((3,4-trans)-1-(4-cyanobenzyl)-3-fluoropiperidin-4-yl)-6-(4-(4-(cyclopropylsulfonyl)phenoxy)piperidine-1-carbonyl)nicotinamide] |
| < 1000 nM | CS(=O)(=O)c1ccc(N2CCN(c3ccc(C(=O)NC4CCN(Cc5ccc(C#N)cc5)CC4)cn3)CC2)cc1 [Compound 7-77, N-(1-(4-cyanobenzyl)piperidin-4-yl)-6-(4-(4-(methylsulfonyl)phenyl)piperazin-1-yl)nicotinamide] |
| < 1000 nM | COc1ccc(C(=O)C2CCN(C(=O)c3ccc(C(=O)NC4CCN(Cc5ccc(C#N)cc5)C[C@@H]4C)cn3)CC2)cc1 (stereo partly drawn) [Compound 7-78, N-((3,4-trans)-1-(4-cyanobenzyl)-3-methylpiperidin-4-yl)-6-(4-(4-methoxybenzoyl)piperidine-1-carbonyl)nicotinamide] |
| 1000 to 10000 nM | CC(=O)c1ccc(Oc2ccc(NC(=O)c3ccc(C(=O)N4CCN(Cc5ccc(S(=O)(=O)N6CCCC6)cc5)CC4)nc3)cn2)cc1 [Compound 7-83, N-(6-(4-acetylphenoxy)pyridin-3-yl)-6-(4-(4-(pyrrolidin-1-ylsulfonyl)benzyl)piperazine-1-carbonyl)nicotinamide] |
| < 1000 nM | COc1ccc(C(=O)C2CCN(C(=O)c3ccc(C(=O)NC4CCN(Cc5ccc(C#N)cc5)CC4(C)C)cn3)CC2)cc1 (centres unmarked) [Compound 7-84, N-(1-(4-cyanobenzyl)-3,3-dimethylpiperidin-4-yl)-6-(4-(4-methoxybenzoyl)piperidine-1-carbonyl)nicotinamide] |
| < 1000 nM | COc1ccc(C(=O)C2CCN(C(=O)c3ccc(C(=O)NC4CCN(Cc5ccc(OC(F)(F)F)cc5)CC4(C)C)cn3)CC2)cc1 (centres unmarked) [Compound 7-85, N-(3,3-dimethyl-1-(4-(trifluoromethoxy)benzyl)piperidin-4-yl)-6-(4-(4-methoxybenzoyl)piperidine-1-carbonyl)nicotinamide] |
| < 1000 nM | COc1ccc(C(=O)C2CCN(C(=O)c3ccc(C(=O)NC4CCN(Cc5ccc(C#N)c(F)c5)CC4(C)C)cn3)CC2)cc1 (centres unmarked) [Compound 7-86, N-(1-(4-cyano-3-fluorobenzyl)-3,3-dimethylpiperidin-4-yl)-6-(4-(4-methoxybenzoyl)piperidine-1-carbonyl)nicotinamide] |
| < 1000 nM | COc1ccc(C(=O)C2CCN(C(=O)c3ccc(C(=O)NC4CCN(Cc5ccc(C#N)cc5)C[C@@H]4C)cn3)CC2)cc1 (stereo partly drawn) [Compound 7-93, N-((3,4-cis)-1-(4-cyanobenzyl)-3-methylpiperidin-4-yl)-6-(4-(4-methoxybenzoyl)piperidine-1-carbonyl)nicotinamide] |
| < 1000 nM | COc1ccc(C(=O)C2CCN(C(=O)c3ccc(C(=O)NC4CCN(Cc5ccc(OC)c(F)c5)C[C@@H]4C)cn3)CC2)cc1 (stereo partly drawn) [Compound 7-96, N-((3,4-cis)-1-(3-fluoro-4-methoxybenzyl)-3-methylpiperidin-4-yl)-6-(4-(4-methoxybenzoyl)piperidine-1-carbonyl)nicotinamide] |
